The assay has as its target T1, GST-hLGK1 (GST added to the amino terminal of human liver GK) (Homo sapiens, UniProt P35557).
T1 construct: with a BamHI site added to immediately before the initiation codon; made in house; host or cells: Escherichia coli BL21 (Stratagene), plasmid pGEX6P-2/hLGK1
T1 sequence (P35557 1-464 isoform P35557-3): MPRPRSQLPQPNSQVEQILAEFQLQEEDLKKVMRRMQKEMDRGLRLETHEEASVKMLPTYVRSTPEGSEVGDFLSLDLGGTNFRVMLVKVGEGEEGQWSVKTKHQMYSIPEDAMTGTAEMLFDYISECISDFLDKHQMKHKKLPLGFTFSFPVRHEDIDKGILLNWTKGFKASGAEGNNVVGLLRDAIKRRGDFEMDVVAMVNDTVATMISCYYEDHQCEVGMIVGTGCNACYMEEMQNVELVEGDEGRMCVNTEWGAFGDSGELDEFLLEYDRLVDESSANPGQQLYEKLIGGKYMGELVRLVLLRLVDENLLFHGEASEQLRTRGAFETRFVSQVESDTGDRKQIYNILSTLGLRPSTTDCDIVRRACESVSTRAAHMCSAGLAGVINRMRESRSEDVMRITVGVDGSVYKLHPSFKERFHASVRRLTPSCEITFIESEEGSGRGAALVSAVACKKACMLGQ
In words: Measurement of GK activation value. The format is biochemical. The settings on record: test compound final concentration 10 μmol/L; reaction rate divided by that of control group (50% DMSO without test compound); Mant-ATP substrate, D-glucose, 37° C., 60 min. As to the method: To each well of a 384-well black plate (Nalge Nunc International K.K.) was added 5 μL of 50% dimethyl sulfoxide solution containing test compound diluted to 100 μmol/L. Then, GST-hLGK1 obtained in Reference Example 2A was diluted with measurement buffer (containing 50 mM HEPES (pH 7.4), 200 mM KCl, 5 mM MgCl2, 2.5 mM DTT and 50 μM 2′-(or-3′)—O—(N-methylanthraniloyl) adenosine 5′-triphosphate (Mant-ATP) (Jena BioScience)) to 6 μg/mL and 35 μL thereof was added to each well.
Each well was stood at 37° C. for 10 min, 25 mM D-glucose solution (10 μL) was added to start the reaction. The final concentration of the test compound was 10 μmol/L.
Each, well after the reaction was stood at 37° C. for 60 min, and the reaction was quenched by adding 25 μL of a quenching solution (containing 200 mM HEPES (pH 7.4), 20 mM MgCl2, 200 mM EDTA, 0.03% Triton-X 100, 0.3% Coating 3 reagent (Caliper Life Sciences, Inc.)).
2′-(or-3′)-O-(N-methylanthraniloyl)adenosine 5′-triphosphate (Mant-ATP, substrate) and Mant-ADP (reaction resultant product) were separated from each well after the reaction by a microchip type capillary electrophoresis apparatus 250 HTS (Caliper Life Sciences, Inc.). The reaction rate [(reaction resultant product peak height)/(reaction resultant product peak height+substrate peak height)×100(%)] was calculated from the ratio of the substrate peak height and reaction resultant product peak height obtained by fluorescence detection (excitation wavelength 355 nm, measurement wavelength 460 nm) and used as the index of GK activity.
As a control group, the reaction rate was calculated in the same manner as above except that “solution in 50% dimethyl sulfoxide (without test compound)” was used instead of “solution of test compound in 50% dimethyl sulfoxide”.
The reaction rate of the well (test compound addition group) added with the test compound was divided by the reaction rate of the control group and the obtained percentage was taken as the GK activation value (Emax) of the test compound.

Consider `CS(=O)(=O)c1ccc(C(CC2CCCC2)c2ccc(-c3nccs3)[nH]2)cc1` (centres unmarked) [Example 1, 2-(5-{2-cyclopentyl-1-[4-(methylsulfonyl)phenyl]ethyl}-1H-pyrrol-2-yl)-1,3-thiazole], for which the Emax (in general, the greatest response seen or fitted, relative to the assay's reference) at 10 µM stood at 195%.
As for `CS(=O)(=O)c1ccc(C(CC2CCCC2)c2ccc(-c3ccccn3)[nH]2)cc1` (centres unmarked) [Example 2, 2-(5-{2-cyclopentyl-1-[4-(methylsulfonyl)phenyl]ethyl}-1H-pyrrol-2-yl)pyridine], the figure is 168%; as for `CS(=O)(=O)c1ccc(C(CC2CCCC2)c2ccc(-c3cnccn3)[nH]2)cc1` (centres unmarked) [Example 3, 2-(5-{2-cyclopentyl-1-[4-(methylsulfonyl)phenyl]ethyl}-1H-pyrrol-2-yl)pyrazine], 180%.
For `Cn1ccnc1-c1ccc(C(CC2CCCC2)c2ccc(S(C)(=O)=O)cc2)[nH]1` (centres unmarked) [Example 4, 2-(5-{2-cyclopentyl-1-[4-(methylsulfonyl)phenyl]ethyl}-1H-pyrrol-2-yl)-1-methyl-1H-imidazole] the value was 227%; for `Cn1cnc(-c2ccc(C(CC3CCCC3)c3ccc(S(C)(=O)=O)cc3)[nH]2)c1` (centres unmarked) [Example 5, 4-(5-{2-cyclopentyl-1-[4-(methylsulfonyl)phenyl]ethyl}-1H-pyrrol-2-yl)-1-methyl-1H-imidazole], 167%.
`Cn1ccc(-c2ccc(C(CC3CCCC3)c3ccc(S(C)(=O)=O)cc3)[nH]2)n1` (centres unmarked) [Example 6, 3-(5-{2-cyclopentyl-1-[4-(methylsulfonyl)phenyl]ethyl}-1H-pyrrol-2-yl)-1-methyl-1H-pyrazole]: the Emax at 10 µM was found to be 198%.
As for `O=S(=O)(c1ccc(C(CC2CCOCC2)c2ccc(-c3nccs3)[nH]2)cc1)C1CC1` (centres unmarked) [Example 7, 2-{5-[1-[4-(cyclopropylsulfonyl)phenyl]-2-(tetrahydro-2H-pyran-4-yl)ethyl]-1H-pyrrol-2-yl}-1,3-thiazole], the figure is 179%.
As for `CCOC(=O)c1[nH]c(C(CC2CCCC2)c2ccc(S(C)(=O)=O)cc2)cc1C` (centres unmarked) [Example 8, Ethyl 5-{2-cyclopentyl-1-[4-(methylsulfonyl)phenyl]ethyl}-3-methyl-1H-pyrrole-2-carboxylate], the Emax at 10 µM was 225%.
As for `Cc1cc(C(CC2CCCC2)c2ccc(S(C)(=O)=O)cc2)[nH]c1C(=O)O` (centres unmarked) [Example 9, 5-{2-cyclopentyl-1-[4-(methylsulfonyl)phenyl]ethyl}-3-methyl-1H-pyrrole-2-carboxylic acid], the figure is 173%; as for `Cc1cc(C(CC2CCCC2)c2ccc(S(C)(=O)=O)cc2)[nH]c1C(N)=O` (centres unmarked) [Example 10, 5-{2-cyclopentyl-1-[4-(methylsulfonyl)phenyl]ethyl}-3-methyl-1H-pyrrole-2-carboxamide], 193%; as for `Cc1cc(C(CC2CCCC2)c2ccc(S(C)(=O)=O)cc2)[nH]c1-c1nccs1` (centres unmarked) [Example 11, 2-(5-{2-cyclopentyl-1-[4-(methylsulfonyl)phenyl]ethyl}-3-methyl-1H-pyrrol-2-yl)-1,3-thiazole], 160%.
As for `CC(C)C(=O)c1[nH]c(C(CC2CCCC2)c2ccc(S(C)(=O)=O)cc2)nc1F` (centres unmarked) [Example 14, 1-(2-{2-cyclopentyl-1-[4-(methylsulfonyl)phenyl]ethyl}-4-fluoro-1H-imidazol-5-yl)-2-methylpropan-1-one], the figure is 185%; as for `CCCC(=O)c1[nH]c(C(CC2CCCC2)c2ccc(S(C)(=O)=O)cc2)nc1F` (centres unmarked) [Example 17, 1-(2-{2-cyclopentyl-1-[4-(methylsulfonyl)phenyl]ethyl}-4-fluoro-1H-imidazol-5-yl)butan-1-one], 188%; as for `CS(=O)(=O)c1ccc(C(CC2CCCC2)c2ncc(C(=O)C3CCC3)[nH]2)cc1` (centres unmarked) [Example 21, Cyclobutyl(2-{2-cyclopentyl-1-[4-(methylsulfonyl)phenyl]ethyl}-1H-imidazol-5-yl)methanone], 157%.

The values are drawn from US8318746B2, “Nitrogen-containing five-membered heterocyclic compound” (Takeda Pharmaceutical Company Limited, priority 2007, dated 2012).
